Source: patent US9328374B2, “Selective culture medium and method for detecting carbapenem-resistant bacteria in a test sample” (Institut National de la Sante et de la Recherche Medicale …, priority 2011, dated 2016)
Where “and” joins values, the source holds several entries; their conditions need not be identical. Equal entries are not always repeated.

Assays:
Experiment in all cases: MIC of imipenem, ertapenem and meropenem
E. coli = format: cell-based, Escherichia coli
P. stuartii = format: cell-based, Providencia stuartii
P. mirabilis = format: cell-based

SMILES: C[C@@H](O)[C@H]1C(=O)N2C(C(=O)O)=C(S[C@@H]3CN[C@H](C(=O)N(C)C)C3)[C@H](C)[C@H]12 [MEM, meropenem]
- MIC (E. coli; E. coli 1008 (TEM-1 + CTX-M-1)): 0.016 µg/mL
- MIC (E. coli; E. coli 1008, CTX-M-1 + TEM-1, non-carbapenemase producer): 0.016 µg/mL
- MIC (E. coli; E. coli 1020, CTX-M-1 + TEM-1, non-carbapenemase producer): 0.016 µg/mL
- MIC (E. coli; E. coli 1023, CTX-M-2 + TEM-1, non-carbapenemase producer): 0.016 µg/mL
- MIC (E. coli; E. coli 1033, CTX-M-15, non-carbapenemase producer): 0.016 µg/mL
- MIC (E. coli; E. coli 1034 (TEM-1 + SHV-38)): 0.016 µg/mL
- MIC (E. coli; E. coli 1034, TEM-1 + SHV-38, non-carbapenemase producer): 0.016 µg/mL
- MIC (E. coli; E. coli 1048 (TEM-1 + SHV-2a)): 0.016 µg/mL
- MIC (E. coli; E. coli 1048, TEM-1 + SHV-2a, non-carbapenemase producer): 0.016 µg/mL
- MIC (E. coli; E. coli 1082 (TEM-1)): 0.016 µg/mL
- MIC (E. coli; E. coli 1082, TEM-1, non-carbapenemase producer): 0.016 µg/mL
- MIC (E. coli; E. coli 1092 (OXA-1)): 0.023 µg/mL
- MIC (E. coli; E. coli 1092, OXA-1, non-carbapenemase producer): 0.023 µg/mL
- MIC (E. coli; E. coli 6252, (wild type), non-carbapenemase producer): 0.008 µg/mL
- MIC (E. coli; E. coli 6367 (wild type)): 0.012 µg/mL
- MIC (E. coli; E. coli 6367, (wild type), non-carbapenemase producer): 0.012 µg/mL
- MIC (E. coli; E. coli 10121 (CTX-M-2)): 0.016 µg/mL
- MIC (E. coli; E. coli 10121, CTX-M-2, non-carbapenemase producer): 0.016 µg/mL
- MIC (E. coli; E. coli 10122, CTX-M-1 + TEM-1, non-carbapenemase producer): 0.016 µg/mL
- MIC (E. coli; E. coli 0404018, VIM-1+ CMY-6): 1 µg/mL
- MIC (E. coli; E. coli 1008077, VIM-1+ TEM-1 + CTX-M-15): 4 µg/mL
- MIC (E. coli; E. coli 1108013, IMP-1 + TEM-1): 1 µg/mL
- MIC (E. coli; E. coli ALL (NDM-1 + OXA-1 + OXA-2 + CTX-M-15 + TEM-1)): 8 µg/mL
- MIC (E. coli; E. coli ALL, NDM-1 + TEM-1 + CTX-M-15 + OXA-1 + OXA-2): 8 µg/mL
- MIC (E. coli; E. coli AME (OXA-48 + CTX-M-24)): 0.19 µg/mL
- MIC (E. coli; E. coli AME, OXA-48 + CTX-M-24): 0.19 µg/mL
- MIC (E. coli; E. coli AUS (NDM-1 + CTX-M-15 + TEM-1)): 16 µg/mL
- MIC (E. coli; E. coli AUS, NDM-1 + TEM-1 + CTX-M-15): 16 µg/mL
- MIC (E. coli; E. coli BER (OXA-48 + CTX-M-15)): 0.19 µg/mL
- MIC (E. coli; E. coli BER, OXA-48 + TEM-1 + CTX-M-15): 0.19 µg/mL
- MIC (E. coli; E. coli BOK (OXA-48 + CTX-M-15)): 0.19 µg/mL
- MIC (E. coli; E. coli BOK, OXA-48 + CTX-M-15): 0.19 µg/mL
- MIC (E. coli; E. coli BON (OXA-48 + CTX-M-24 + TEM-1)): 0.19 µg/mL
- MIC (E. coli; E. coli BON, OXA-48 + TEM-1 + CTX-M-24): 0.19 µg/mL
- MIC (E. coli; E. coli BOU (OXA-48 + CTX-M-15)): 0.125 µg/mL
- MIC (E. coli; E. coli BOU, OXA-48 + CTX-M-15): 0.125 µg/mL
- MIC (E. coli; E. coli COL (KPC-2)): 2 µg/mL
- MIC (E. coli; E. coli COL, KPC-2 + TEM-1 + CTX-M-9): 2 µg/mL
- MIC (E. coli; E. coli DIH (VIM-19)): 4 µg/mL
- MIC (E. coli; E. coli DIH, VIM-19): 4 µg/mL
- MIC (E. coli; E. coli DIN, KPC-2 + TEM-1 + OXA-1): 0.5 µg/mL
- MIC (E. coli; E. coli E14 (CTX-M-14)): 0.12 µg/mL
- MIC (E. coli; E. coli E14, CTX-M-14, non-carbapenemase producer): 0.012 µg/mL
- MIC (E. coli; E. coli ECA, ACC-1, non-carbapenemase producer): 0.012 µg/mL
- MIC (E. coli; E. coli EVB, VEB-1, non-carbapenemase producer): 0.012 µg/mL
- MIC (E. coli; E. coli FOR, CTX-M-15, non-carbapenemase producer): 0.012 µg/mL
- MIC (E. coli; E. coli GEN (NDM-1 + OXA-1 + CMY-30 + TEM-1)): 12 µg/mL
- MIC (E. coli; E. coli GEN, NDM-1 + TEM-1 + CMY-30 + OXA-1): 12 µg/mL
- MIC (E. coli; E. coli GOG (OXA-48 + CTX-M-24)): 0.25 µg/mL
- MIC (E. coli; E. coli GUE (NDM-1 + OXA-1 + TEM-1)): 2 µg/mL
- MIC (E. coli; E. coli GUE, NDM-1 + TEM-1 + OXA-1): 2 µg/mL
- MIC (E. coli; E. coli HAN (OXA-48 + CTX-M-15)): 1 µg/mL
- MIC (E. coli; E. coli HAN, OXA-48 + CTX-M-15): 1 µg/mL
- MIC (E. coli; E. coli HB4 (OmpC-, OmpF-)): 0.25 µg/mL
- MIC (E. coli; E. coli HB4, (OmpC-, OmpF-), non-carbapenemase producer, porin deficiency): 0.25 µg/mL
- MIC (E. coli; E. coli IR5 (NDM-1 + CTX-M-15 + TEM-1)): 16 µg/mL
- MIC (E. coli; E. coli IR5, NDM-1 + TEM-1 + CTX-M-15): 16 µg/mL
- MIC (E. coli; E. coli JAP (IMP-1)): 0.5 µg/mL
- MIC (E. coli; E. coli JAP, IMP-1): 0.5 µg/mL
- MIC (E. coli; E. coli LIL, KPC-2 + TEM-1 + OXA-9): 1 µg/mL
- MIC (E. coli; E. coli MAD (VIM-1 + CTX-M-3)): 0.5 µg/mL
- MIC (E. coli; E. coli MAD, VIM-1+ CTX-M-3): 0.5 µg/mL
- MIC (E. coli; E. coli MAR (Overexpressed AmpC)): 2 µg/mL
- MIC (E. coli; E. coli MAR, Overexpressed AmpC, non-carbapenemase producer): 2 µg/mL
- MIC (E. coli; E. coli MET, Chromosome-encoded extended-spectrum cephalosporinase, non-carbapenemase producer): 0.012 µg/mL
- MIC (E. coli; E. coli NAA (OXA-48 + CTX-M-24)): 0.25 µg/mL
- MIC (E. coli; E. coli OM3, OXA-48 + TEM-1 + CTX-M-15): 0.38 µg/mL
- MIC (E. coli; E. coli OM20, NDM-1 + TEM-1 + CTX-M-15): 8 µg/mL
- MIC (E. coli; E. coli OM22, OXA-48 + TEM-1 + CTX-M-15): 0.25 µg/mL
- MIC (E. coli; E. coli PSP (KPC-2)): 0.5 µg/mL
- MIC (E. coli; E. coli PSP, KPC-2 + TEM-1 + OXA-1): 0.5 µg/mL
- MIC (E. coli; E. coli RIC (NDM-1 + OXA-1 + OXA-10 + CMY-16)): 1 µg/mL
- MIC (E. coli; E. coli RIC, NDM-1 + CMY-16 + OXA-1 + OXA-10): 1 µg/mL
- MIC (E. coli; E. coli ROB (OXA-48)): 0.25 µg/mL
- MIC (E. coli; E. coli ROB, OXA-48): 0.25 µg/mL
- MIC (E. coli; E. coli SYD, CMY-2, non-carbapenemase producer): 0.012 µg/mL
- MIC (E. coli; E. coli TWA, IMP-8 + SHV-12): 3 µg/mL
- MIC (E. coli; E. coli ZAN, OXA-48 + TEM-1 + CTX-M-14): 0.75 µg/mL
- MIC (E. coli; strain E. coli 1008, TEM-1 + CTX-M-1, non-carbapenemase producer): 0.016 µg/mL
- MIC (E. coli; strain E. coli 1034, TEM-1 + SHV-38, non-carbapenemase producer): 0.016 µg/mL
- MIC (E. coli; strain E. coli 1048, TEM-1 + SHV-2a, non-carbapenemase producer): 0.016 µg/mL
- MIC (E. coli; strain E. coli 10121, CTX-M-2, non-carbapenemase producer): 0.016 µg/mL
- MIC (E. coli; strain E. coli AME, OXA-48 + CTX-M-24): 0.19 µg/mL
- MIC (E. coli; strain E. coli BON, OXA-48 + TEM-1 + CTX-M-24): 0.19 µg/mL
- MIC (E. coli; strain E. coli ECA, ACC-1, non-carbapenemase producer): 0.012 µg/mL
- MIC (E. coli; strain E. coli EVB, VEB-1, non-carbapenemase producer): 0.012 µg/mL
- MIC (E. coli; strain E. coli FOR, CTX-M-15, non-carbapenemase producer): 0.012 µg/mL
- MIC (E. coli; strain E. coli HB4, (OmpC-, OmpF-), non-carbapenemase producer): 0.25 µg/mL
- MIC (E. coli; strain E. coli JAP, IMP-1): 0.5 µg/mL
- MIC (E. coli; strain E. coli MAR, Overexpressed AmpC, non-carbapenemase producer): 2 µg/mL
- MIC (E. coli; strain E. coli MET, Chromosome-encoded extended-spectrum cephalosporinase, non-carbapenemase producer): 0.012 µg/mL
- MIC (E. coli; strain E. coli ROB, OXA-48): 0.25 µg/mL
- MIC (E. coli; strain E. coli SYD, CMY-2, non-carbapenemase producer): 0.012 µg/mL
- MIC (P. stuartii; P. stuartii NDM (NDM-1 + OXA-1 + CMY-6)): 1.5 µg/mL
- MIC (P. stuartii; P. stuartii PS1 (NDM-1 + CMY-6 + OXA-1)): 1.5 µg/mL
- MIC (P. stuartii; P. stuartii PS1, NDM-1 + CMY-6 + OXA-1): 1.5 µg/mL
- MIC (P. stuartii; strain P. stuartii PS1, NDM-1 + CMY-6 + OXA-1): 1.5 µg/mL
- MIC (P. mirabilis; P. mirabilis 1031 (CTX-M-14 + TEM-1 + SHV-11)): 0.032 µg/mL
- MIC (P. mirabilis; P. mirabilis 1031, CTX-M-14 + TEM-1 + SHV-11, non-carbapenemase producer): 0.032 µg/mL
- MIC (P. mirabilis; P. mirabilis PMA (ACC-1)): 0.12 µg/mL and 0.064 µg/mL
- MIC (P. mirabilis; P. mirabilis PMA, ACC-1, non-carbapenemase producer): 0.064 µg/mL
